Molecules are shown by their SMILES.

Here are results for two molecules from patent US10933091B1, “Composition and method for the treatment of type I diabetes” (Vector Vitale IP LLC, priority 2019, dated 2021).

Data set [1] can be described thus: Intraperitoneal administration to intact rats: accumulation of metals in liver and kidney tissues. The settings on record: day 1 and day 7 after discontinuation, in words.
Description: The administration of these compositions was by intraperitoneal route.
Animals are placed in cages, 4 per cage, with free access to food/water. […] Administration is performed every other day, in the amount of 7 injections per animal (intraperitoneal method of drug administration). The dose of the drug injected to each animal was calculated on the basis of the ratio: 3750 μg of zinc per 1 kg of animal body weight. After the last injection, a half of the animals are maintained on hunger (for 12 hours) with free access to water. Upon expiration of this time period, the animals are taken out of the experiment. The second half of the animals continues to have free access to food/water for a further 7 days. On day 6 after the last injection, the animals are maintained on hunger (for 12 hours) with free access to water. Upon expiration of this time period, the animals are taken out of the experiment.
The total kidney, liver and muscle homogenates were prepared as follows. Organ excision and homogenization were carried out at a temperature of 1-4° C. Homogenization of tissues was carried out in 50 mM Tris-HCl buffer (pH 7.4) which contained 140 mM NaCl, 1 mM EDTA. The volume of the used buffer in ml was 5 times larger than the mass of isolated organs in grams. The isolated liver was perfused with chilled saline (0.9% NaCl) via the portal vein using a syringe. […]
Data set [2] can be described thus: Levels of divalent metal ions in muscles, kidneys and liver, diet-induced obesity study. As to conditions: DIO rats (high-fat diet).
The test system of data set [3] is peripheral serotonergic system (duodenum). As to the kind of experiment: Indicators of the peripheral serotonergic system (duodenum). The format is in vivo, rats. The source says:
(§1) The tissue: buffer ratio was 1:10.
(§2) The samples were reprecipitated by centrifugation.
(§3) University. Medicine.-2000.-1, No. 494.-P. 40-43.
(§4) The supernatant was used in further studies.

A short description of data set [4]: Serum biochemistry (albumin, triglycerides, cholesterol, free fatty acids), diet-induced obesity study. As to conditions: DIO rats (high-fat diet), week 10.
Description: The levels of serum albumin in the animals were determined spectrophotometrically using a Microlab 300 biochemistry analyzer and standard PLIVA-Lachema Diagnostika test kits (Czech Republic).
Data set [5] relates to alkaline phosphatase. As to conditions: serum; DIO rats (high-fat diet), week 10.
Description: To this end, high-fat diet obesity was induced in experimental animals as described in Example 2.
Serum alkaline phosphatase activity in the animals was measured spectrophotometrically using a Microlab 300 biochemical analyzer and standard PLIVA-Lachema Diagnostika test kits (Czech Republic).
As a result of hydrolytic cleavage of p-nitrophenyl phosphate catalyzed by alkaline phosphatase, p-nitrophenol is formed, which gives an intense yellow color in alkaline medium. The optical density of samples was measured at a wavelength of 405 nm. The alkaline phosphatase activity was expressed in relative units.
Data set [6] has as its system central serotonergic system (brain). As to the kind of experiment: Indicators of the central serotonergic system (brain). It is filed as in vivo, rats.
Description: as §1, §2, §3, §4

Data set [7] concerns tryptophan, serotonin, monoamine oxidase. As to the kind of experiment: Serum tryptophan, serotonin and monoamine oxidase activity. It is filed as in vivo, rats.
Description: as §2, §3

Consider `CC(=O)[O-].CC(=O)[O-].[Zn+2]` [Zn acetate, Zinc acetate, reference compound], for which the “zinc level in kidney and liver tissues” value in data set [1] was “significantly increased”.

Turning to `N[C@@H](CC(=O)[O-])C(=O)[O-].[Zn+2]` [^64Zne, zinc aspartate], the Zinc level came out at 20.28 ± 1.75 μg/ tissue in data set [2] (kidneys), 31.43 ± 1.78 μg/ tissue in data set [2] (liver) and 9.10 ± 0.42 μg/ tissue in data set [2] (muscles). Further, the Serotonin came to 9.73 µg/g in data set [3] (DIO rats (high-fat diet)); 7.41 ± 0.54 µg/g in data set [3] (control rats (standard diet)); 20.1 µg/g in data set [6] (DIO rats (high-fat diet)); 25.51 ± 2.71 µg/g in data set [6] (control rats (standard diet)); 6.33 ± 0.51 µg/g in data set [7] (DIO rats (high-fat diet)); 10.16 ± 0.62 µg/g in data set [7] (control rats (standard diet)). Moreover, the Tryptophan in data set [3] (DIO rats (high-fat diet)) was 89.4 µg/g; in data set [3] (control rats (standard diet)), 154.7 ± 13.6 µg/g; in data set [6] (DIO rats (high-fat diet)), 31.56 µg/g; in data set [6] (control rats (standard diet)), 87.71 ± 3.41 µg/g; in data set [7] (DIO rats (high-fat diet)) it was 66.65 ± 9.62 µg/g; in data set [7] (control rats (standard diet)) it was 56.12 ± 7.58 µg/g. In data set [4], this molecule registered an Albumin levels of 166.2 ± 15.8 RU. Further, in data set [4], the Cholesterol was 2.83 ± 0.23 mmol/L. In addition, the Free fatty acids in data set [4] was found to be 31.62 ± 7.92 mg/L. In addition, the Triglycerides in data set [4] came out at 2.79 ± 0.30 g/L. Besides, the Alkaline phosphatase activity in data set [5] turned out to be 87.6 ± 18.7 RU. Besides, the “zinc level in kidney and liver tissues” value in data set [1] is listed as “significantly increased”.
